Molecules are shown by their SMILES. Where two headings read alike, the source gives them in different places. Peptide text beside a SMILES is read from it.

Data set [1] can be described thus: Stability against chemical degradation in water or pH buffers at 50° C. (HPLC). The conditions noted are these: for precipitation during stability test: 0.2% AI, 0.25% Proxel GXL, 50 mM buffers; for precipitation during stability test / stability after 14 days: 50° C.; for solution stability (in words): aqueous solution; for % remaining after 14 days incubation: 50 mM TES, pH 8.0, 50° C.; for stability after 14 days: 50 mM EDTA, pH 8 (FIG. 24). The protocol:
Briefly, the stability and resistance to chemical degradation of peptides can be assessed as follows using peptide samples having an initial purity of at least about 80%, at least about 82%, at least about 84%, at least about 86%, at least about 88%, at least about 90%, at least about 92%, at least about 94%, at least about 96%, or at least about 98%. For water stability, the peptide is dissolved directly in de-ionized water. For chemical degradation tests, the peptide is dissolved in an aqueous solution containing 50 mM pH buffer and 0.25% Proxel GXL. Exemplary pH buffers include, without limitation: (i) Citrate pH 5.6; (ii) MES pH 6.2; (iii) MOPS pH 6.5; (iv) imidazole pH 7.0; (v) Citrate pH 7.2; (vi) EDDS, pH 7.3; (vii) EDTA pH 8.0; (viii) sodium phosphate pH 8.0; or (ix) TES pH 8.0. Peptides are first dissolved in the aqueous solution at a concentration of 0.5 mg/ml. […] An initial sample of the peptide is removed, diluted 10× with water, and analyzed by reverse-phase HPLC. Briefly, 20 μl of the sample is injected into the solvent flow of an HPLC instrument and analyzed on a C18 HPLC column (YMC ProPack C18, YMC, Japan, or C18 Stablebond, Agilent Technologies, USA) using either a triethylamine phosphate in water/acetonitrile gradient or a 0.1% TFA in water/0.1% TFA in acetonitrile gradient to separate different peptide species. Eluting peptides are monitored by UV absorbance at 218 nm and quantified based on the area under the peak. The area under the peak for the initial peptide sample is treated as the standard for relative quantification in subsequent runs. At regular intervals (e.g., 1, 3, 7, 10, 14, 17, and 21 days), each peptide sample is surveyed and analyzed by HPLC as described above.
Stability against chemical degradation was assessed in various pH buffers by creating 0.2% AI solutions of pure, chemically synthesized peptide in deionized water, 0.25% weight to volume of Proxel® GXL (biocide), and 50 millimolar (mM) of eight buffers (separately) as follows: MES pH 5.6, MOPS pH 6.5, Citrate pH 7.2, EDDS pH 7.3, EDTA pH 8, Phosphate pH 8, Imidazole pH 8, and TES pH 8.

The conditions of data set [2]: 0.2% AI in deionized water, 48 hours at room temperature.

Regarding `CC[C@H](C)[C@H](NC(=O)CNC(=O)[C@H](CCC(=O)O)NC(=O)[C@@H](N)CC(N)=O)C(=O)N[C@@H](CO)C(=O)N[C@@H](CCC(=O)O)C(=O)N[C@@H](CCCCN)C(=O)N[C@@H](CCC(=O)O)C(=O)N[C@@H](CC(C)C)C(=O)N[C@@H](CC(=O)O)C(=O)N[C@@H](CCC(=O)O)C(=O)N[C@@H](CC(C)C)C(=O)N[C@@H](CC(C)C)C(=O)N[C@H](C(=O)N[C@@H](CCC(=O)O)C(=O)N[C@@H](CC(C)C)C(=O)N[C@H](C(=O)N[C@@H](CCC(=O)O)C(=O)N[C@@H](C)C(=O)N[C@@H](CC(C)C)C(=O)N[C@@H](CC(C)C)C(=O)N[C@@H](CCC(N)=O)C(=O)N[C@@H](CCC(N)=O)C(=O)O)[C@@H](C)CC)[C@@H](C)O` [P1-2E,8E,11E,15E,18E] (H-NEGISEKELDELLTELIEALLQQ-OH; N-terminus and C-terminus assumed), in data set [1], the “precipitation during stability test” value is recorded as “remained in solution”; the “solution stability (in words)” value was “improved solubility and stability when compared with P1”. Besides, the solubility entry in data set [2] is reported as “soluble”.

Regarding `CC[C@H](C)[C@H](NC(=O)CNC(=O)[C@H](CCC(N)=O)NC(=O)[C@@H](N)CC(N)=O)C(=O)N[C@@H](CO)C(=O)N[C@@H](CCC(=O)O)C(=O)N[C@@H](CCCCN)C(=O)N[C@@H](CCC(N)=O)C(=O)N[C@@H](CC(C)C)C(=O)N[C@@H](CC(=O)O)C(=O)N[C@@H](CCC(N)=O)C(=O)N[C@@H](CC(C)C)C(=O)N[C@@H](CC(C)C)C(=O)N[C@H](C(=O)N[C@@H](CCC(N)=O)C(=O)N[C@@H](CC(C)C)C(=O)N[C@H](C(=O)N[C@@H](C)C(=O)N[C@@H](C)C(=O)N[C@@H](CC(C)C)C(=O)N[C@@H](CC(C)C)C(=O)N[C@@H](CCC(N)=O)C(=O)N[C@@H](CCC(N)=O)C(=O)O)[C@@H](C)CC)[C@@H](C)O` [Peptide P1-18A] (H-NQGISEKQLDQLLTQLIAALLQQ-OH; N-terminus and C-terminus assumed), the “% remaining after 14 days incubation” value in data set [1] amounted to 47%.

With `CC[C@H](C)[C@H](NC(=O)CNC(=O)[C@H](CCC(N)=O)NC(=O)[C@@H](N)CC(N)=O)C(=O)N[C@@H](CO)C(=O)N[C@@H](CCC(=O)O)C(=O)N[C@@H](CCCCN)C(=O)N[C@@H](CCC(N)=O)C(=O)N[C@@H](CC(C)C)C(=O)N[C@@H](CC(=O)O)C(=O)N[C@@H](CCC(N)=O)C(=O)N[C@@H](CC(C)C)C(=O)N[C@@H](CC(C)C)C(=O)N[C@H](C(=O)N[C@@H](CCC(N)=O)C(=O)N[C@@H](CC(C)C)C(=O)N[C@H](C(=O)N[C@@H](CCCCN)C(=O)N[C@@H](C)C(=O)N[C@@H](CC(C)C)C(=O)N[C@@H](CC(C)C)C(=O)N[C@@H](CCC(N)=O)C(=O)N[C@@H](CCC(N)=O)C(=O)O)[C@@H](C)CC)[C@@H](C)O` [Peptide P1-18K] (H-NQGISEKQLDQLLTQLIKALLQQ-OH; N-terminus and C-terminus assumed), the solubility is not below 20 mg/mL. Moreover, the “% remaining after 14 days incubation” value in data set [1] is 58%.

With `CC[C@H](C)[C@H](NC(=O)CNC(=O)[C@H](CCC(N)=O)NC(=O)[C@@H](N)CC(N)=O)C(=O)N[C@@H](CO)C(=O)N[C@@H](CCC(=O)O)C(=O)N[C@@H](CCCCN)C(=O)N[C@@H](CCC(N)=O)C(=O)N[C@@H](CC(C)C)C(=O)N[C@@H](CC(=O)O)C(=O)N[C@@H](CCC(N)=O)C(=O)N[C@@H](CC(C)C)C(=O)N[C@@H](CC(C)C)C(=O)N[C@H](C(=O)N[C@@H](CCC(N)=O)C(=O)N[C@@H](CC(C)C)C(=O)N[C@H](C(=O)N[C@H](C(=O)N[C@@H](C)C(=O)N[C@@H](CC(C)C)C(=O)N[C@@H](CC(C)C)C(=O)N[C@@H](CCC(N)=O)C(=O)N[C@@H](CCC(N)=O)C(=O)O)[C@@H](C)O)[C@@H](C)CC)[C@@H](C)O` [Peptide P1-18T] (H-NQGISEKQLDQLLTQLITALLQQ-OH; N-terminus and C-terminus assumed), the “% remaining after 14 days incubation” value in data set [1] is listed as 71%.

`CC[C@H](C)[C@H](NC(=O)CNC(=O)[C@H](CCC(N)=O)NC(=O)[C@@H](N)CO)C(=O)N[C@@H](CO)C(=O)N[C@@H](CCC(=O)O)C(=O)N[C@@H](CCCCN)C(=O)N[C@@H](CCC(N)=O)C(=O)N[C@@H](CC(C)C)C(=O)N[C@@H](CC(=O)O)C(=O)N[C@@H](CCC(N)=O)C(=O)N[C@@H](CC(C)C)C(=O)N[C@@H](CC(C)C)C(=O)N[C@@H](CO)C(=O)N[C@@H](CCC(N)=O)C(=O)N[C@@H](CC(C)C)C(=O)N[C@H](C(=O)N[C@@H](CCC(N)=O)C(=O)N[C@@H](C)C(=O)N[C@@H](CC(C)C)C(=O)N[C@@H](CC(C)C)C(=O)N[C@@H](CCC(N)=O)C(=O)N1CCC[C@H]1C(=O)O)[C@@H](C)CC` [Peptide P4-14S] (H-SQGISEKQLDQLLSQLIQALLQP-OH; N-terminus and C-terminus assumed): in data set [1], the “precipitation during stability test” value was “remained in solution” and the “solution stability (in words)” value is recorded as “highly stable peptide”. For the same compound, in data set [2], the solubility entry is “completely soluble”.

For `CC[C@H](C)[C@H](NC(=O)[C@@H](NC(=O)[C@H](CCC(N)=O)NC(=O)[C@H](CCCNC(=N)N)NC(=O)[C@H](CC(=O)O)NC(=O)[C@@H](NC(=O)[C@@H]1CCCN1C(=O)[C@H](CCC(N)=O)NC(=O)[C@@H](N)CCC(N)=O)[C@@H](C)CC)[C@@H](C)O)C(=O)N[C@@H](CCC(=O)O)C(=O)N[C@@H](CCC(N)=O)C(=O)N[C@@H](CCSC)C(=O)N[C@@H](C)C(=O)N[C@@H](CCC(N)=O)C(=O)N[C@@H](CC(C)C)C(=O)N[C@@H](CC(C)C)C(=O)N[C@@H](C)C(=O)N[C@@H](CCC(N)=O)C(=O)N[C@@H](CC(C)C)C(=O)N[C@@H](CC(C)C)C(=O)N[C@@H](CCCCN)C(=O)N[C@@H](CO)C(=O)N[C@@H](CC(C)C)C(=O)N[C@@H](CC(C)C)C(=O)O` [Peptide P18-1] (H-QQPIDRQTIEQMAQLLAQLLKSLL-OH), the “stability after 14 days” value in data set [1] is more than 90%.

With `CC[C@H](C)[C@H](NC(=O)[C@@H](NC(=O)[C@H](CCC(N)=O)NC(=O)[C@H](CCCNC(=N)N)NC(=O)[C@@H](N)CC(=O)O)[C@@H](C)O)C(=O)N[C@@H](CCC(=O)O)C(=O)N[C@@H](CCC(N)=O)C(=O)N[C@@H](CC(C)C)C(=O)N[C@@H](C)C(=O)N[C@@H](CCC(N)=O)C(=O)N[C@@H](CC(C)C)C(=O)N[C@@H](CC(C)C)C(=O)N[C@@H](C)C(=O)N[C@@H](CCC(N)=O)C(=O)N[C@@H](CC(C)C)C(=O)N[C@@H](CC(C)C)C(=O)N[C@@H](CCCCN)C(=O)N[C@@H](CO)C(=O)N[C@@H](CC(C)C)C(=O)N[C@@H](CC(C)C)C(=O)N[C@@H](CO)C(=O)N1CCC[C@H]1C(=O)O` [Peptide P18-4] (H-DRQTIEQLAQLLAQLLKSLLSP-OH), in data set [1], the “stability after 14 days” value is 60%.

As for `CC[C@H](C)[C@H](N)C(=O)N[C@H](C(=O)N1CCC[C@H]1C(=O)N[C@@H](CC(=O)O)C(=O)NCC(=O)N[C@@H](CCC(N)=O)C(=O)NCC(=O)NCC(=O)NCC(=O)N[C@@H](CCC(N)=O)C(=O)N[C@H](C(=O)NCC(=O)N[C@@H](CC(=O)O)C(=O)N[C@@H](CC(N)=O)C(=O)N1CCC[C@H]1C(=O)N[C@@H](CC(C)C)C(=O)N[C@@H](CC(C)C)C(=O)N[C@@H](CCCCN)C(=O)N[C@@H](C)C(=O)N[C@@H](CC(C)C)C(=O)N[C@@H](CC(C)C)C(=O)N[C@@H](CCCCN)C(=O)N[C@@H](CC(C)C)C(=O)N[C@H](C(=O)N[C@@H](C)C(=O)O)[C@@H](C)CC)[C@@H](C)CC)[C@@H](C)O` [Peptide P19-20L] (H-ITPDGQGGGQIGDNPLLKALLKLIA-OH; N-terminus and C-terminus assumed), the “stability compared with P19 (in words)” value in data set [1] (50 mM citrate pH 7.2 or 50 mM TES, pH 8.0) is “modest increase in stability”.

As for `CC[C@H](C)[C@H](N)C(=O)N[C@H](C(=O)N1CCC[C@H]1C(=O)N[C@@H](CC(=O)O)C(=O)NCC(=O)N[C@@H](CCC(N)=O)C(=O)NCC(=O)NCC(=O)NCC(=O)N[C@@H](CCC(N)=O)C(=O)N[C@H](C(=O)NCC(=O)N[C@@H](CC(=O)O)C(=O)N[C@@H](CC(N)=O)C(=O)N1CCC[C@H]1C(=O)N[C@@H](CC(C)C)C(=O)N[C@@H](CC(C)C)C(=O)N[C@@H](CCCCN)C(=O)N[C@@H](C)C(=O)N[C@@H](CCSC)C(=O)N[C@@H](CC(C)C)C(=O)N[C@@H](CCCCN)C(=O)N[C@@H](CC(C)C)C(=O)N[C@H](C(=O)N[C@@H](C)C(=O)O)[C@@H](C)CC)[C@@H](C)CC)[C@@H](C)O` [Peptide P19] (H-ITPDGQGGGQIGDNPLLKAMLKLIA-OH; N-terminus and C-terminus assumed), the share remaining at 336 h in data set [1] (buffer or solvent) amounted to 52%.

Source of the values: patent US20210127671A1, “HYPERSENSITIVE RESPONSE ELICITOR PEPTIDES AND USE THEREOF” (priority 2015, published 2021).
